Measurements taken from PubChem BioAssay AID1963864 (Molecular Pharmacology Branch, DTP, NCI, 2024).

Tested on: KRAS PDC multicell spheroid viability
Assay: Anticancer human tumor 521955-158-R6-J3-PDC patient-derived pancreatic carcinoma cell line growth inhibition [KRAS2]
Settings: for IC50: curve of first compound; for viability, T/C: stronger effect = lower value
How it was run: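 Combination screen of spheroid viability in tumor-cell co-cultures with endothelial (HUVEC) and mesenchymal stem cell stroma. Each agent was tested in half-log dilutions, topping at clinical Cmax or at 10 microM without a known Cmax.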

[1] = second compound 0.1 µM, first compound 0.0316 µM
[2] = second compound 0.1 µM, first compound 0.1 µM
[3] = second compound 0.1 µM, first compound 0.316 µM
[4] = second compound 0.1 µM, first compound 1 µM
[5] = second compound 0.1 µM, first compound 3.16 µM
[6] = second compound 0.1 µM, first compound 10 µM
[7] = second compound 0.316 µM, first compound 0.0316 µM
[8] = second compound 0.316 µM, first compound 0.1 µM
[9] = second compound 0.316 µM, first compound 0.316 µM
[10] = second compound 0.316 µM, first compound 1 µM
[11] = second compound 0.316 µM, first compound 3.16 µM
[12] = second compound 0.316 µM, first compound 10 µM
[13] = second compound 1 µM, first compound 0.0316 µM
[14] = second compound 1 µM, first compound 0.1 µM
[15] = second compound 1 µM, first compound 0.316 µM
[16] = second compound 1 µM, first compound 1 µM
[17] = second compound 1 µM, first compound 3.16 µM
[18] = second compound 1 µM, first compound 10 µM
[19] = second compound 3.16 µM, first compound 0.0316 µM
[20] = second compound 3.16 µM, first compound 0.1 µM
[21] = second compound 3.16 µM, first compound 0.316 µM
[22] = second compound 3.16 µM, first compound 1 µM
[23] = second compound 3.16 µM, first compound 3.16 µM
[24] = second compound 3.16 µM, first compound 10 µM
[25] = second compound 10 µM, first compound 0.0316 µM
[26] = second compound 10 µM, first compound 0.1 µM
[27] = second compound 10 µM, first compound 0.316 µM
[28] = second compound 10 µM, first compound 1 µM
[29] = second compound 10 µM, first compound 3.16 µM
[30] = second compound 10 µM, first compound 10 µM
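Also: drug exposure lasted seven days.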
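For viability, T/C in this document: 100% = DMSO vehicle wells and lower means fewer viable cells.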

Row | Structure (SMILES) | IC50 (second compound 0.1 µM) [µM] | IC50 (second compound 0.316 µM) [µM] | IC50 (second compound 1 µM) [µM] | IC50 (second compound 3.16 µM) [µM] | IC50 (second compound 10 µM) [µM] | viability, T/C [1] [%] | viability, T/C [2] [%] | viability, T/C [3] [%] | viability, T/C [4] [%] | viability, T/C [5] [%] | viability, T/C [6] [%] | viability, T/C [7] [%] | viability, T/C [8] [%] | viability, T/C [9] [%] | viability, T/C [13] [%] | viability, T/C [14] [%] | viability, T/C [19] [%] | viability, T/C [20] [%] | viability, T/C [25] [%] | viability, T/C [26] [%] | also measured
1 | COc1cc(Nc2ncc3c(n2)-c2ccc(Cl)cc2C(c2c(F)cccc2OC)=NC3)ccc1C(=O)O + COc1cc2nc(C)nc(NC(C)c3cc(N)cc(C(F)(F)F)c3)c2cc1OC1CCOC1 | > 10 | > 10 | > 10 | > 10 | < 0.0316 | 102 | 88.3 | 89 | 88.9 | 97.1 | 90.4 | 93.4 | 86.3 | 87.4 | 80.7 | 84.4 | 76 | 72.5 | 68.9 | 23.1 | viability, T/C [10]: 99.2%; viability, T/C [11]: 96.8%; viability, T/C [12]: 88.6%; viability, T/C [15]: 87.7%; viability, T/C [16]: 89.3%; viability, T/C [17]: 95.3%; viability, T/C [18]: 83.4%; viability, T/C [21]: 82.1%; viability, T/C [22]: 78.5%; viability, T/C [23]: 80.6%; viability, T/C [24]: 71.2%; viability, T/C [27]: 30%; viability, T/C [28]: 31.2%; viability, T/C [29]: 56.8%; viability, T/C [30]: 23%
2 | COc1cc2nccc(Oc3ccc(NC(=O)C4(C(=O)Nc5ccc(F)cc5)CC4)cc3)c2cc1OC + COc1cc2nc(C)nc(NC(C)c3cc(N)cc(C(F)(F)F)c3)c2cc1OC1CCOC1 | > 10 | > 10 | > 10 | > 10 | < 0.0316 | 89.3 | 91.9 | 78.7 | 91.3 | 101 | 90.2 | 93.3 | 97.2 | 90.1 | 79.8 | 84.4 | 70.5 | 73.9 | 49.1 | 11.8 | viability, T/C [10]: 90.9%; viability, T/C [11]: 97.5%; viability, T/C [12]: 95.2%; viability, T/C [15]: 83.5%; viability, T/C [16]: 88.1%; viability, T/C [17]: 103%; viability, T/C [18]: 78.7%; viability, T/C [21]: 70.8%; viability, T/C [22]: 72.8%; viability, T/C [23]: 89.5%; viability, T/C [24]: 53.6%; viability, T/C [27]: 18.1%; viability, T/C [28]: 27.6%; viability, T/C [29]: 2.28%; viability, T/C [30]: 1.88%
3 | Cn1ncnc1[C@H]1c2n[nH]c(=O)c3cc(F)cc(c23)N[C@@H]1c1ccc(F)cc1 + COc1cc2nc(C)nc(NC(C)c3cc(N)cc(C(F)(F)F)c3)c2cc1OC1CCOC1 | > 0.1 | > 0.1 | > 0.1 | > 0.1 | < 0.000316 | 94 | 93.1 |  |  |  |  | 87.3 | 84.2 |  | 82.3 | 82.6 | 71.8 | 74.9 | 8.29 | 16 | viability, T/C (second compound 0.1 µM, first compound 0.000316 µM): 96.2%; viability, T/C (second compound 0.1 µM, first compound 0.001 µM): 94.9%; viability, T/C (second compound 0.1 µM, first compound 0.00316 µM): 86.8%; viability, T/C (second compound 0.1 µM, first compound 0.01 µM): 87.8%; viability, T/C (second compound 0.316 µM, first compound 0.000316 µM): 90.5%; viability, T/C (second compound 0.316 µM, first compound 0.001 µM): 92.6%; viability, T/C (second compound 0.316 µM, first compound 0.00316 µM): 86.7%; viability, T/C (second compound 0.316 µM, first compound 0.01 µM): 87.8%; viability, T/C (second compound 1 µM, first compound 0.000316 µM): 83.2%; viability, T/C (second compound 1 µM, first compound 0.001 µM): 78.3%; viability, T/C (second compound 1 µM, first compound 0.00316 µM): 80.5%; viability, T/C (second compound 1 µM, first compound 0.01 µM): 86.6%; viability, T/C (second compound 3.16 µM, first compound 0.000316 µM): 68.2%; viability, T/C (second compound 3.16 µM, first compound 0.001 µM): 73.9%; viability, T/C (second compound 3.16 µM, first compound 0.00316 µM): 71.5%; viability, T/C (second compound 3.16 µM, first compound 0.01 µM): 72.3%; viability, T/C (second compound 10 µM, first compound 0.000316 µM): 23.4%; viability, T/C (second compound 10 µM, first compound 0.001 µM): 27.8%; viability, T/C (second compound 10 µM, first compound 0.00316 µM): 9.47%; viability, T/C (second compound 10 µM, first compound 0.01 µM): 25.1%
